Values joined by “and” are separate entries in the source; they are usually repeats but may differ in a detail not shown here. Equal entries are not always repeated.
Key:
Format in all cases: in vivo, female turkeys
H. meleagridis [1] = experiment: Controlling Histomoniasis in turkeys (QSC and QHS); conditions: MED 30 mg/kg bird/day; QHS 1500 ppm; QSC 750 ppm
Protocol: A total of 160 3-week-old female turkeys were randomly grouped into 10 pens. The groups were: control (−) CON, control (+) POS, MED (metronidazole), and two different treatments, (QSC and QHS's active content under treatment) is set). Control group (−) was not challenged or treated with any product, control (+) was only inoculated with a H. meleagridis suspension, and the MED group was inoculated with the same dose and treated with metronidazole, 30 mg/kg bird/day. […] Table 22 summarizes bird distribution according to treatments, as well as the appropriate product dosage.
(§1) The treatments were started as of 3 weeks of age. The H. meleagridis challenge suspension contained 100000 cells/mL, approximately, and was inoculated as of 4 weeks of age, cloacal route. The female turkey mortality rate was recorded throughout the trial, and lesions were measured by using a previously standardized lesion scoring at 8 weeks of age.

H. meleagridis [2] = experiment: Controlling Histomoniasis in turkeys (QSC, QS15 750 ppm); conditions: MED 30 mg/kg bird/day, QSC 750 ppm
Protocol: A total of 200 3-week-old female turkeys were randomly grouped into 9 pens. The groups were: control (−) (CON), control (+) (POS), metronidazole (MED), two 750 PPM QSC-treated groups, and two groups treated with 750 PPM QS15-treated groups. The CON group was not challenged or treated with any product, POS was only inoculated a H. meleagridis suspension, and the MED group was inoculated with the same dose and treated with 30 mg/kg metronidazole per bird/day. The CON group was comprised of 16 young female turkeys, while the remainder comprised 23 each. Table 17 summarizes the bird distribution according to treatment, as well as the appropriate product dosage.
The treatments were started at 3 weeks of age. The H. meleagridis challenge suspension had approximately 100000 cells/mL and was inoculated at 4 weeks of […] age. Weight was measured at 3, 6 and 8 weeks of age. Feed intake was estimated at 6 and 8 weeks of age. The young female turkey mortality rate was recorded throughout the trial, and lesions were measured by using a previously standardized lesion scoring at 8 weeks of age.

H. meleagridis [3] = experiment: Controlling Histomoniasis in turkeys (QSC HD 1500 ppm); conditions: MED 30 mg/kg bird/day
Protocol: A total of 160 3-week-old female turkeys were randomly grouped into 10 pens. The groups were: control (−) CON, control (+) POS, metronidazole (MED), two groups treated with QSC at 1500 ppm (HD greater dose than in the previous trial). The CON group was not challenged or treated with any product; POS control was only inoculated with a H. meleagridis suspension, and the MED group was inoculated with the same dose and treated with metronidazole, 30 mg/kg bird/day. […] Table 1208 summarizes bird distribution according to treatments, as well as the appropriate product dosage.
The treatments were started as of 3 weeks of age. The H. meleagridis challenge suspension was 100000 cell/mL, approximately, and was inoculated at 4 weeks of age, via cloacal route. Female turkey mortality rate was recorded throughout the trial, and lesions were measured by using a previously standardized lesion scoring at 8 weeks of age.

H. meleagridis [4] = experiment: Controlling Histomoniasis in turkeys (BQ batches 3250 ppm); conditions: MED 30 mg/kg bird/day; BQ-1, BQ-2, BQ-3 3250 ppm
Protocol: A total of 200 3-week-old young female turkeys were randomly grouped in 10 pens. The groups were: control (−) CON, control (+) POS, MED (metronidazole), 3 groups treated with BQ. BQ is a quillay wood-based additive where three different batches were evaluated with (2.5-5.5%) saponins.
as §1, with “100000 cell/ml,” for “100000 cells/mL,”, “inoculated at” for “inoculated as of”, “age, via” for “age,”

## Cc1ncc([N+](=O)[O-])n1CCO [MED, metronidazole]
H. meleagridis [1]
  Cecum lesion score: 1.5c
  Liver lesion score: 0.3a
  Mortality (%): 25% and 25.00ab %
H. meleagridis [2]
  Cecum lesion score: 0.2a
  Liver lesion score: 0.0a
  Mortality (%): 2% and 2a %
H. meleagridis [3]
  Cecum lesion score: 1.3b
  Liver lesion score: 0.28ab
  Mortality (%): 10% and 10a %
H. meleagridis [4]
  Cecum lesion score: 0.85a
  Liver lesion score: 0.5ab
  Mortality (%): 10% and 10.00ab %

Source: patent US20250248936A1 (priority 2022, published 2025)
